Laboratory results: ChEMBL document CHEMBL1201862, “PubChem BioAssay data set” (2004)
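Each compound was tested at five concentrations against cells in 96-well plates for 48 hours. Abbreviation: GI50, concentration required for 50% inhibition of growth.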 Calls of active or inactive are those of the source. Cut-off read from the data, not from the text of the source: active = GI50 up to about 1.1 µM and inactive = higher.

How the values were obtained:
Assay in all cases: NCI-60 cell line screen, 48 h
CAKI-1 = system: CAKI-1
SNB-19 = system: SNB-19
K562 = system: K562
HCC 2998 = system: HCC 2998
SF-539 = system: SF-539
OVCAR-3 = system: OVCAR-3
DU-145 = system: DU-145
NCI/ADR-RES = system: NCI/ADR-RES
OVCAR-8 = system: OVCAR-8
SF-295 = system: SF-295
UACC-62 = system: UACC-62
LOX IMVI = system: LOX IMVI
RPMI-8226 = system: RPMI-8226
OVCAR-5 = system: OVCAR-5
786-0 = system: 786-0
Malme-3M = system: Malme-3M
UO-31 = system: UO-31
IGROV-1 = system: IGROV-1
SNB-75 = system: SNB-75
PC-3 = system: PC-3

Compound | GI50 (CAKI-1) | GI50 (SNB-19) | GI50 (K562) | GI50 (HCC 2998) | GI50 (SF-539) | GI50 (OVCAR-3) | GI50 (DU-145) | GI50 (NCI/ADR-RES) | GI50 (OVCAR-8) | GI50 (SF-295) | GI50 (UACC-62) | GI50 (LOX IMVI) | GI50 (RPMI-8226) | GI50 (OVCAR-5) | GI50 (786-0) | GI50 (Malme-3M) | GI50 (UO-31) | GI50 (IGROV-1) | GI50 (SNB-75) | GI50 (PC-3)
COc1cc(/C=C2/SC(c3ccccc3)N(c3ccc(NC(C)=O)cc3)C2=O)cc(OC)c1OC (configuration not stated) | > 100 µM (inactive) | > 100 µM (inactive) | 49.4 µM (inactive) | > 100 µM (inactive) | > 100 µM (inactive) | > 100 µM (inactive) | > 100 µM (inactive) | > 100 µM (inactive) | > 100 µM (inactive) | 61.2 µM (inactive) | > 100 µM (inactive) | 72.1 µM (inactive) | 36.8 µM (inactive) | > 100 µM (inactive) | > 100 µM (inactive) | 54.1 µM (inactive) | 48.8 µM (inactive) |  |  | 
COc1ccc2nc3cc(Cl)ccc3c(Sc3ccc([N+](=O)[O-])cc3)c2c1 | > 10 µM (inactive) | > 10 µM (inactive) | > 10 µM (inactive) | > 10 µM (inactive) | > 10 µM (inactive) | > 10 µM (inactive) |  |  | > 10 µM (inactive) | > 10 µM (inactive) | > 10 µM (inactive) | > 10 µM (inactive) | > 100 µM (inactive) | > 10 µM (inactive) | > 10 µM (inactive) | > 10 µM (inactive) | > 10 µM (inactive) | > 10 µM (inactive) | 34.1 µM (inactive) | 
Cc1cc(C)c2c(=O)n(CN3CC4Nc5ccccc5C4C3)sc2n1 (configuration not stated) | 21 µM (inactive) | 65.9 µM (inactive) | 27.9 µM (inactive) |  | 19.9 µM (inactive) | 33.5 µM (inactive) | 21.1 µM (inactive) | 35.6 µM (inactive) | 21.2 µM (inactive) | > 100 µM (inactive) | 23.8 µM (inactive) | 21.8 µM (inactive) | 11.3 µM (inactive) | 21 µM (inactive) | 17.2 µM (inactive) | 11.7 µM (inactive) | 16.3 µM (inactive) | > 100 µM (inactive) |  | 21.3 µM (inactive)
N=S(c1ccccc1[N+](=O)[O-])c1ccccc1[N+](=O)[O-] | 2.07 µM (inactive) | 9.33 µM (inactive) |  | 3.4 µM (inactive) | 3.13 µM (inactive) | 0.839 µM (active) | 2.64 µM (inactive) |  | 2.14 µM (inactive) |  | 3.45 µM (inactive) | 0.76 µM (active) | 1.14 µM (inactive) | 4.13 µM (inactive) | 1.38 µM (inactive) | 2.72 µM (inactive) | 1.87 µM (inactive) | 1.98 µM (inactive) | 7.94 µM (inactive) | 1.46 µM (inactive)
c1ccc(CNc2ccc3[nH]c4cnccc4c3c2)cc1 | 16.2 µM (inactive) | 16 µM (inactive) | 14.3 µM (inactive) | 18.1 µM (inactive) | 18.1 µM (inactive) | 14 µM (inactive) |  |  | 17.5 µM (inactive) | 18.5 µM (inactive) | 17.6 µM (inactive) | 17.8 µM (inactive) | 16.4 µM (inactive) | 16.8 µM (inactive) | 15.3 µM (inactive) | 16.9 µM (inactive) | 15.5 µM (inactive) | 16.8 µM (inactive) | 6.89 µM (inactive) | 
O=C(CCCCCCCCCCc1ccccc1)c1c(O)cccc1O | 29.5 µM (inactive) | 20.2 µM (inactive) | 21.4 µM (inactive) | 19.4 µM (inactive) | 18.1 µM (inactive) | 27 µM (inactive) |  |  | 20.7 µM (inactive) | 21.3 µM (inactive) | 20.7 µM (inactive) | 27.2 µM (inactive) | 34.7 µM (inactive) | 21.2 µM (inactive) | 17.7 µM (inactive) | 17.9 µM (inactive) | 21.1 µM (inactive) | 26.5 µM (inactive) | 29 µM (inactive) | 
COc1ccc(C2[C@H]3C(=O)N(c4ccc(Cc5ccc(N6C(=O)[C@@H]7ON(c8ccccc8)C(c8ccc(OC)cc8)[C@@H]7C6=O)cc5)cc4)C(=O)[C@H]3ON2c2ccccc2)cc1 (some centres not stated) | > 100 µM (inactive) | > 100 µM (inactive) | > 100 µM (inactive) | > 100 µM (inactive) | > 100 µM (inactive) | > 100 µM (inactive) |  |  | > 100 µM (inactive) | > 100 µM (inactive) | > 100 µM (inactive) | > 100 µM (inactive) | > 100 µM (inactive) | > 100 µM (inactive) | > 100 µM (inactive) | 87.5 µM (inactive) | > 100 µM (inactive) | > 100 µM (inactive) | > 100 µM (inactive) | 
CCCCCCCCCCCC1CC(=O)NCCCN(C)CCCCN(C)CCCN1C (configuration not stated) [BUDMUNCHIAMINE A] | 2.08 µM (inactive) | 1.7 µM (inactive) | 0.261 µM (active) | 1.74 µM (inactive) | 1.75 µM (inactive) | 1.69 µM (inactive) |  |  | 1.89 µM (inactive) | 1.64 µM (inactive) | 1.68 µM (inactive) | 1.48 µM (inactive) | 0.828 µM (active) | 1.85 µM (inactive) | 1.55 µM (inactive) | 1.9 µM (inactive) | 1.72 µM (inactive) | 1.82 µM (inactive) | 1.59 µM (inactive) | 
